Results published in the NIST ThermoML archive (doi:10.1021/je700096m).

Assay: xn = mol fraction of the nth substance listed
Conditions: 298.15 K, Liquid

CCCCCCCCCl [1-chlorooctane] + CC(=O)N(C)C
mass density [kg/m3]
Conditions | x2 = 0.0963 | x2 = 0.2006 | x2 = 0.2938 | x2 = 0.4059 | x2 = 0.5022 | x2 = 0.602 | x2 = 0.7005 | x2 = 0.8075 | x2 = 0.901
100 kPa | 872 | 875.8 | 879.6 | 884.87 | 890.2 | 896.7 | 904.1 | 913.7 | 923.6
2000 kPa | 873.5 | 877.2 | 881.1 | 886.2 | 891.5 | 898.1 | 905.4 | 914.9 | 924.8
4000 kPa | 875 | 878.7 | 882.5 | 887.6 | 892.9 | 899.4 | 906.8 | 916.3 | 926.1
6000 kPa | 876.5 | 880.2 | 884 | 889 | 894.3 | 900.8 | 908.1 | 917.5 | 927.3
8000 kPa | 877.9 | 881.6 | 885.5 | 890.4 | 895.8 | 902.2 | 909.4 | 918.8 | 928.5
10000 kPa | 879.5 | 883.1 | 887 | 892 | 897.3 | 903.6 | 910.8 | 920 | 929.8
12000 kPa | 880.9 | 884.5 | 888.3 | 893.3 | 898.5 | 904.9 | 912.1 | 921.3 | 931
14000 kPa | 882.3 | 885.9 | 889.7 | 894.6 | 899.9 | 906.1 | 913.4 | 922.4 | 932.2
15900 kPa | – | – | – | – | – | 907.4 | – | – | –
16000 kPa | 883.7 | 887.3 | 891.1 | 896 | 901.1 | – | 914.6 | 923.7 | 933.3
18000 kPa | 885 | 888.6 | 892.4 | 897.3 | 902.4 | 908.7 | 915.8 | 924.9 | 934.4
20000 kPa | 886.5 | 890.1 | 893.9 | 898.5 | 903.8 | 910 | 917.1 | 926.1 | 935.7

CCCCCCCCCl [1-chlorooctane] + CN(C)C=O
mass density [kg/m3]
Conditions | x2 = 0.1042 | x2 = 0.2009 | x2 = 0.2669 | x2 = 0.4023 | x2 = 0.4992 | x2 = 0.6035 | x2 = 0.6982 | x2 = 0.8002 | x2 = 0.9001
100 kPa | 871.7 | 875.3 | 877.9 | 884.2 | 889.7 | 896.8 | 904.7 | 914.9 | 927.7
2000 kPa | 873.1 | 876.7 | 879.4 | 885.6 | 891 | 898.2 | 906 | 916.1 | 928.8
4000 kPa | 874.7 | 878.2 | 880.8 | 887.1 | 892.5 | 899.6 | 907.5 | 917.4 | 930.2
6000 kPa | 876.1 | 879.7 | 882.3 | 888.5 | 893.9 | 900.9 | 908.8 | 918.8 | 931.4
7900 kPa | 877.6 | – | – | – | – | – | – | – | –
8000 kPa | – | 881.1 | 883.7 | 889.9 | 895.3 | 902.3 | 910.1 | 920.1 | 932.6
9900 kPa | – | – | – | – | – | – | – | 921.4 | –
10000 kPa | 879.1 | 882.7 | 885.2 | 891.4 | 896.8 | 903.7 | 911.4 | – | 933.9
12000 kPa | 880.6 | 884.1 | 886.6 | 892.8 | 898.1 | 905 | 912.7 | 922.7 | 935.1
13900 kPa | – | 885.4 | – | – | – | – | – | – | –
14000 kPa | 882 | – | 887.9 | 894.1 | 899.4 | 906.3 | 914 | 924 | 936.3
15900 kPa | 883.2 | – | 889.2 | – | 900.7 | – | – | – | –
16000 kPa | – | 886.4 | – | 895.4 | – | 907.7 | 915.4 | 925 | 937.6
17900 kPa | – | – | – | 896.7 | – | – | – | – | 938.6
18000 kPa | 884.6 | 888.2 | 890.6 | – | 902 | 908.9 | 916.5 | 926.3 | –
20000 kPa | 886 | – | 891.8 | 898 | 903.3 | 910.3 | 917.7 | 927.5 | 939.8
20100 kPa | – | 889.6 | – | – | – | – | – | – | –
